Experimental data from PMC3078184 (Cancer research, 2011).

Legend:
[1] = target: T1, ABCG2 (Homo sapiens, UniProt Q9UNQ0); assay: vanadate-sensitive ATPase stimulation in membrane vesicles; type: biochemical
T1 sequence (Q9UNQ0 1-655): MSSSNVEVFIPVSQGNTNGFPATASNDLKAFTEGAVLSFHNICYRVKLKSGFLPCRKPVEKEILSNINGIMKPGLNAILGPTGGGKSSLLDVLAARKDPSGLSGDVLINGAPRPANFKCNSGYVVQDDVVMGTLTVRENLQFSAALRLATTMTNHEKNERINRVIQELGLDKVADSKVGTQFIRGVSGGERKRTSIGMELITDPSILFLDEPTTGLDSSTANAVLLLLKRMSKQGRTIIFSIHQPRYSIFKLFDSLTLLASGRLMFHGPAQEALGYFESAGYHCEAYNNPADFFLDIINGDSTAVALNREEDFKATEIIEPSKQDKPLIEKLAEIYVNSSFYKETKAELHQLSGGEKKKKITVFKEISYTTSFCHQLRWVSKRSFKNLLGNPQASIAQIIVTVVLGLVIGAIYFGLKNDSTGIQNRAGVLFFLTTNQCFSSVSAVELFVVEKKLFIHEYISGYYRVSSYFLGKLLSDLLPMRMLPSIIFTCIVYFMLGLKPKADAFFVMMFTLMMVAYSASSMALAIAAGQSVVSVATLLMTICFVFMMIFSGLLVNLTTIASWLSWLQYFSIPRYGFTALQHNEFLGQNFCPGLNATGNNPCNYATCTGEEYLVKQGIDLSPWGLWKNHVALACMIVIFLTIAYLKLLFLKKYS

[2] = target: ABCB1 (Homo sapiens, UniProt P08183); assay: as above; type: biochemical
ABCB1, sequence (P08183 whole entry): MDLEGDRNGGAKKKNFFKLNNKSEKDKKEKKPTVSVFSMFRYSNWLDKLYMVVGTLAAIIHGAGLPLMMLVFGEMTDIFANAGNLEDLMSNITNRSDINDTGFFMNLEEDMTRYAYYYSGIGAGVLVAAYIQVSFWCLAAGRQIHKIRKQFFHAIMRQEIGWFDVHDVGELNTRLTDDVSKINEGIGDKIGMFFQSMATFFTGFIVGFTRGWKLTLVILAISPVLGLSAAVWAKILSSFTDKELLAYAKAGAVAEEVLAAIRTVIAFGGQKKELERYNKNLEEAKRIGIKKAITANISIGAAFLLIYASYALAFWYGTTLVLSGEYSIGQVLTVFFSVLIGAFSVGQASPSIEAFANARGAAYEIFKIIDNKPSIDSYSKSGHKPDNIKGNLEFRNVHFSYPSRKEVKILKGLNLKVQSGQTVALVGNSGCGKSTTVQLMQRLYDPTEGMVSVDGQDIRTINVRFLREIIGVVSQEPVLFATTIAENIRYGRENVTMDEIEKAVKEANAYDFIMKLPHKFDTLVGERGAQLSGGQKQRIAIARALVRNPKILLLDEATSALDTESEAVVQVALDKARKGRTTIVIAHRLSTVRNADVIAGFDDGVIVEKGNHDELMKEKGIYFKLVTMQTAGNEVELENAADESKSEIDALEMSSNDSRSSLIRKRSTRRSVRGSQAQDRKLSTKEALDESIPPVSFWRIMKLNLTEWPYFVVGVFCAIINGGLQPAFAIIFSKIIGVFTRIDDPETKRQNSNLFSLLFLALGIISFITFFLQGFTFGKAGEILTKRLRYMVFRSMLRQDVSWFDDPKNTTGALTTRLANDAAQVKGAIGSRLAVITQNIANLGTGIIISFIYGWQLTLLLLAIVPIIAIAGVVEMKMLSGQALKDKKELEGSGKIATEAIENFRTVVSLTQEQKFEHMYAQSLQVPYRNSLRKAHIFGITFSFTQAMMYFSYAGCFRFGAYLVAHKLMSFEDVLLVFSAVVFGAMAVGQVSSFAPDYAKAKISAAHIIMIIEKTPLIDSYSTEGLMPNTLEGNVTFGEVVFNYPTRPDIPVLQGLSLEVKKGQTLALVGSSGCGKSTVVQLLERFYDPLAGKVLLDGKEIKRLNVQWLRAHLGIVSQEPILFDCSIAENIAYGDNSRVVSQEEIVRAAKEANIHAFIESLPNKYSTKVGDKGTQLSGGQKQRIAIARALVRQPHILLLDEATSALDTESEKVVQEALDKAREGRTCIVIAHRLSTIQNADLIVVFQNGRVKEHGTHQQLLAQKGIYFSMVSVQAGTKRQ

With CCCc1nn(C)c2c(=O)[nH]c(-c3cc(S(=O)(=O)N4CCN(C)CC4)ccc3OCC)nc12 [Sildenafil] as the molecule, how does the EC50 [1] read?
Its EC50 is 250 to 500 nM.

What about the EC50 [2] of the same molecule?
The EC50 was 5000 to 10000 nM.
